From ChEMBL document CHEMBL1137192, “Synthesis and neurotrophic activity of nonimmunosuppressant cyclosporin A derivatives” (Bioorg Med Chem Lett, 2004)

Assays:
[1] = system: T-cell; experiment: Inhibition of T-cell proliferation; assay type: functional; conditions: read-out: ED50 (the source's name)
[2] = molecular target: Peptidyl-prolyl cis-trans isomerase A (Homo sapiens, UniProt P62937); experiment: Inhibition of cyclophilin A rotamase
Sequence of Peptidyl-prolyl cis-trans isomerase A (P62937 whole entry): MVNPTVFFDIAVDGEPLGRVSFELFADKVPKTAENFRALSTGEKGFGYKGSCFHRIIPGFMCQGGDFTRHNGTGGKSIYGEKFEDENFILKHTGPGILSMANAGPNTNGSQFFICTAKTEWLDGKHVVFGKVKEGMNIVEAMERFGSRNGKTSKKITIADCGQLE

| SMILES | EC50 [1] [nM] | Ki [2] [nM] |
| --- | --- | --- |
| CCCC[C@@H](C)[C@@H](O)[C@H]1C(=O)N[C@@H](CC)C(=O)N(C)CC(=O)N(C)[C@@H](CC(C)C)C(=O)N[C@@H](C(C)C)C(=O)N(C)[C@@H](CC(C)C)C(=O)N[C@@H](C)C(=O)N[C@H](C)C(=O)N(C)[C@@H](CC(C)C)C(=O)N(C)[C@@H](CC(C)C)C(=O)N(C)[C@@H](C(C)C)C(=O)N1C | 130 |  |
| C/C=C/C[C@@H](C)C(O)[C@H]1C(=O)N[C@@H](CC)C(=O)N(C)CC(=O)N(C)[C@H](CC(C)C)C(=O)N[C@](C)(C(C)O)C(=O)N(C)[C@@H](CC(C)C)C(=O)N[C@@H](C)C(=O)N[C@H](C)C(=O)N(C)[C@H](CC(C)C)C(=O)N(C)[C@@H](CC(C)C)C(=O)N(C)[C@@H](C(C)C)C(=O)N1C (stereo not given in full) | > 10000 | 18 |
| C/C=C/C[C@@H](C)[C@@H](O)[C@H]1C(=O)N[C@@H](CC)C(=O)N(C)CC(=O)N(C)[C@@H](CC)C(=O)N[C@@H](C(C)C)C(=O)N(C)[C@@H](CC(C)C)C(=O)N[C@@H](C)C(=O)N[C@H](C)C(=O)N(C)[C@@H](CC(C)C)C(=O)N(C)[C@@H](CC(C)C)C(=O)N(C)[C@@H](C(C)C)C(=O)N1C | > 10000 |  |
| C=C1NC(=O)[C@H](C)NC(=O)[C@H](CC(C)C)N(C)C(=O)[C@H](C(C)C)NC(=O)[C@H](CC(C)C)N(C)C(=O)CN(C)C(=O)[C@H](CC)NC(=O)[C@H]([C@H](O)[C@H](C)C/C=C/C)N(C)C(=O)[C@H](C(C)C)N(C)C(=O)[C@H](CC(C)C)N(C)C(=O)[C@H](CC(C)C)N(C)C1=O | > 10000 |  |
